Results: patent publication US20240010726A1, “LFA-1 SIGNALLING MEDIATOR FOR USE IN CANCER THERAPY” (Universität Basel, priority 2020, published 2024)

Assays:
LFA-1 [1] = target: T1, LFA-1 (Homo sapiens, UniProt P05107+P20701); experiment: Flow cytometry of LFA-1 open head-piece (mAb m24) on EM and naïve CD8 T cells; assay type: cell-based
T1 construct: endogenous in cells; host or cells: primary human T cells from healthy donors: PHA-induced T cell blasts, sorted EM and naive CD8 T cells, and NY-ESO-1 TCR-transduced REP T cells
Experimental: FIG. 2: Extracellular magnesium promotes memory-specific activation via LFA-1. Glycolytic switch of human EM CD8 T cells (a) and naïve CD8 T cells (b) subsets upon injection of anti-CD3 Ab only, or anti-CD3 and anti-CD28 Ab, was assessed by metabolic flux analysis in medium containing either 1.2 mM Mg^2+, 0 mM Mg^2+, or medium which was reconstituted from 0 mM to 1.2 mM Mg^2+ immediately prior to activation (0→1.2 mM Mg^2+). (a) Results for human effector memory (EM) and (b) for human naïve CD8 T cells. Glycolytic switch was quantified by subtracting […] measurements. (c) Flow cytometric analysis of surface activation markers on human EM CD8 T cells 24 hours after activation by plate-bound anti-CD3 Ab and soluble anti-CD28 Ab, in 1.2 mM and 0 mM Mg^2+ media, respectively. (d) Abundance of inflammatory cytokines in corresponding EM CD8 T cell culture supernatants, determined by CBA. (e) CD11a (LFA-1) surface expression on human naïve and EM CD8 T cells as well PHA T cell blasts. Flow cytometry-based assessment of total LFA-1 expression assessed by mAb TS2/4 (f), closed conformation of αL by mAb HI111 (g), extended conformation of LFA-1 by mAb Kim127 (h), open head-piece conformation of LFA-1 by mAb m24 (i), phosphorylation of focal adhesion kinase (FAK) […] as well TNF expression (k)±TCR-induced activation in different extracellular Mg^2+ concentrations. […]

LFA-1 [2] = target: T1, LFA-1; experiment: Co-culture assay with Blinatumomab, LFA-1 head-piece opening on PHA-blasts; assay type: cell-based; conditions: 30 min co-culture with Ramos cells; Blinatumomab 300 pg ml^−1; ±Mg^2+
Experimental: FIG. 3: Magnesium regulates LFA-1 mediated T cell activation and cytotoxicity as well BiTE- and CAR T-cell functionality. (a) Glycolytic switch of murine WT and LFA-1^−/− CTLs upon injection of anti-CD3/28 Ab in medium containing 1.2 mM Mg^2+ and 0 mM Mg^2+, presented as quantification of summarized data with n=4 mice. (b) Calcium flux in WT and LFA-1^−/− Jurkat T cells stimulated with anti-CD3 Ab in 1.2 mM and 0 mM Mg^2+ medium, respectively. Cells were loaded with Fluo4, and signal intensity as recorded by plate reader, was normalized to unstimulated baseline values. […] Quantified results of n=3 mice with 3 technical replicates each. […] Results are quantified of n=3 mice with 3 technical replicates each. (e) Representative CD11a (LFA-1) surface expression on human naïve and EM CD8 T cells, PHA T cell blasts and REP T cells, assessed by flow cytometry. […] Data is presented as quantified results of n=5 healthy donors (f, g, h), n=3 healthy donors with 2 technical replicates each or n=1 healthy donor with 4 technical replicates (j). […] Data is presented as quantified results of n=1 healthy donor with 4 technical replicates. […] Cytotoxicity is reported as total area under the curve of the fluorescence driven by incorporation of cytotoxic green reagent in dead target cells (green area per μm^2). […]

T1 sequence (P20701 26-1170): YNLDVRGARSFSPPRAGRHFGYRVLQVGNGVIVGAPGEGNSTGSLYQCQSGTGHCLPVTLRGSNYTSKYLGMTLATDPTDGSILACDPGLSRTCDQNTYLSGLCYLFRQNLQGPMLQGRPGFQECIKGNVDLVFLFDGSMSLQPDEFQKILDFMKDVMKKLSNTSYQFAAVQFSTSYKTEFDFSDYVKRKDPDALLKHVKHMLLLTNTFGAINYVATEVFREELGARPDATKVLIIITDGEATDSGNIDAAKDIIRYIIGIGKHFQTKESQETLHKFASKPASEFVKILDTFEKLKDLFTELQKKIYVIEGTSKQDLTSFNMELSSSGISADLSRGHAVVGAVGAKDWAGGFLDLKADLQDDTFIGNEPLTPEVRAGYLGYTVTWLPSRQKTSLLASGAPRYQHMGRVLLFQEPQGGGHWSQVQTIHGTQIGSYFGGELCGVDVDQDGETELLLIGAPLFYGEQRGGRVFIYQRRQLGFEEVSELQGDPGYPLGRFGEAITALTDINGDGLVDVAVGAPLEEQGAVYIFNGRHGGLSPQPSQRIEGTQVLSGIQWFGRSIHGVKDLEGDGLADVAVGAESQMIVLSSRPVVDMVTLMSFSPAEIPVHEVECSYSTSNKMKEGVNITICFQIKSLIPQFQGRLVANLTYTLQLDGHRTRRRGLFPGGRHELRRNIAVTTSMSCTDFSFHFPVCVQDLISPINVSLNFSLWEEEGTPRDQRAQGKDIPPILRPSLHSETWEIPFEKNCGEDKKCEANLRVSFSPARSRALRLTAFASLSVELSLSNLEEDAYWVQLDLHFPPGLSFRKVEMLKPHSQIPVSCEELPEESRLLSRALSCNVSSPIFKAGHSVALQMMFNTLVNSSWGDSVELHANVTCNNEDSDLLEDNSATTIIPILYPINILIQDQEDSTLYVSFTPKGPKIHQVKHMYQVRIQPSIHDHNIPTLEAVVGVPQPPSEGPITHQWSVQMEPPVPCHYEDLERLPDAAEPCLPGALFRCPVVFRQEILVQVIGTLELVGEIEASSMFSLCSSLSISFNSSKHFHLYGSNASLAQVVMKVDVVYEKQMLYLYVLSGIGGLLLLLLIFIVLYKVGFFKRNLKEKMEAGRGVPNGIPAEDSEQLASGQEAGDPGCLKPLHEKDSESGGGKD
T1 sequence (P05107 23-769): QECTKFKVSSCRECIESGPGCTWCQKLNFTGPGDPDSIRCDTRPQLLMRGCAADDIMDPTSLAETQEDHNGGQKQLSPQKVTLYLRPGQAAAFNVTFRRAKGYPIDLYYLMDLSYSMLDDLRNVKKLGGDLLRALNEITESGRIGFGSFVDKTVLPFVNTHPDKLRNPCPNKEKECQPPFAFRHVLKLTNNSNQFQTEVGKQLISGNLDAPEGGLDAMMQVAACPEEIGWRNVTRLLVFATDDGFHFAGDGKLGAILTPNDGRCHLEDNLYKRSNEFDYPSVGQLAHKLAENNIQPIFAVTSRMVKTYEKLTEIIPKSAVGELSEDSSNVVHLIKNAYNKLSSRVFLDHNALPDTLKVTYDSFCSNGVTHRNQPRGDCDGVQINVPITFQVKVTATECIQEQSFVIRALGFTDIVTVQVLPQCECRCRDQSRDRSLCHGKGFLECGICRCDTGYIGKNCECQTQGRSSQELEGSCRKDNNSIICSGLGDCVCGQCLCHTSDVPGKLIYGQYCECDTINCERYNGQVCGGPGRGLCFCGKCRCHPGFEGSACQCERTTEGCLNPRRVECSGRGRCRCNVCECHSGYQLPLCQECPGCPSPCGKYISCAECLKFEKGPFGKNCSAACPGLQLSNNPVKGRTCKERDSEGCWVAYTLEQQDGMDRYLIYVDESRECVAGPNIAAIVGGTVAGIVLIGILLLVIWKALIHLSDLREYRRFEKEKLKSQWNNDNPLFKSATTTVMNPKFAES

With `[Mg+2]` [Mg^2+, Magnesium] the “Activation induced LFA-1 head-piece opening (m24) on EM CD8 T cells” value (LFA-1 [1]; Mg^2+-restricted conditions vs Mg^2+) was “reduced activation induced LFA-1 head-piece opening”, the “Activation induced LFA-1 head-piece opening (m24) on naïve CD8 T cells” value (LFA-1 [1]; moderate TCR stimulation, ±Mg^2+) was “did not induce LFA-1 head-piece opening” and the “Activation-induced LFA-1 head-piece opening on PHA-blasts” value (LFA-1 [2]) was “Mg^2+-dependent”.
